From patent US12351587B2, “Bicyclic compound as RIP-1 kinase inhibitor and application thereof” (MEDSHINE DISCOVERY INC., priority 2019, dated 2025) come the findings set out here.

Each structure is given as a SMILES string.

This assay relates to TNF-α/zVAD induced systemic inflammatory response syndrome (SIRS). In words: Mouse model of TNF-α induced systemic inflammatory response syndrome (SIRS). Format: in vivo. To be noted: 10 mpk by gavage. The protocol:
Assay Example 4: In Vivo Efficacy Study in Mouse Model of Tumor Necrosis Factor (TNF-α) Induced Systemic Inflammatory Response Syndrome (SIRS)
Instruments and Materials • 1) Electronic balance: Brand Changzhou Tianzhiping Instrument Equipment Co., Ltd., Model JY20002 • 2) Anal thermometer. Brand PHYSITEMP, model BAT-12 Formulation of Reagents • 1) TNF-α: TNF-α was centrifuged quickly (10000 rmp, 30 s) before opening the lid. One bottle of TNF-α (1 mg) was dissolved in 1 mL of sterile water to prepare a mother liquor with a concentration of 1 mg/mL. The mother liquor was stored at 4° C. and cm be stored for one week, 1000 μL of the mother liquor was weighed and added to 5667 μL of sterile water, and then 333 mg of trehalose was added and dissolved to prepare a working solution. • 2) zVAD: […] of zVAD was weighed and added to 480 μL of DMSO, and the mixture was vortexed, sonicated, and heated at 37° C., and then 15.52 mL of physiological saline was added. A working solution with a concentration of 1.25 mu/mL was prepared. Assay Steps • 1) The mice were reared adaptively for 3 days, and then randomly grouped into cages, 5 mice in each cage. Ear tags were cut. • 2) Firstly, the mice were given the corresponding compound by gavage according to their body weight, and then injected intraperitoneally with zVAD at a dose of 250 μg per mouse. After the intraperitoneal injection of zVAD, the anal temperature was measured immediately (0 h), and the time was recorded. The time when mice were given zVAD was defined as the 0th hour (0 h). • 3) After 15 minutes, TNF-α was injected through the tail vein at a dose of 200 μL per mouse, and then the anal temperature was measured 15 minutes later (0.5 h). • 4) After 1 h, zVAD was injected intraperitoneally at a dose of 125 μg per mouse, and then the anal temperature was measured immediately (1 h). The anal temperature was measured again at 2 h, 3 h, and 4 h.

For the molecule `CN1C(=S)[C@@H](NC(=O)c2ncn(Cc3ccccc3)n2)COc2cccnc21` [WX009], the “4-hour survival rate of animals” value worked out at 100%. For the same molecule, the “Decrease in mouse body temperature” value (1 hour) came to 0.94 °C. In addition, the “Decrease in mouse body temperature” value (2 hours) stood at 1.2 °C. Further, under “3 hours”, the “Decrease in mouse body temperature” value came out at 1.42 °C. The “Decrease in mouse body temperature” value (4 hours) came out at 1.52 °C.
